Reference: US20220378763A1, “COMPOUND FOR TREATMENT OF ACUTE INFLAMMATION IN THE MYOCARDIUM” (CALPROTECT AB, priority 2019, published 2022)

What was measured:
S100A9 binding to RAGE = target: T1, S100A9 binding to RAGE (Homo sapiens, UniProt P06702); assay: Surface plasmon resonance (Biacore 3000): inhibition of S100A9 binding to immobilized RAGE; details: 50 nM recombinant human S100A9 over immobilized RAGE; response at late dissociation phase
T1 sequence (P06702 1-114): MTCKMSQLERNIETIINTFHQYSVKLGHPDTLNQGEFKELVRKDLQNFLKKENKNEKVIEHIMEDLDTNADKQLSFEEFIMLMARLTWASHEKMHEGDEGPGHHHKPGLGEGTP
Description: (a) The molecular structure of ABR-238901. (b-c) Surface plasmon resonance measurement of S100A9 binding to immobilized RAGE (b) and TLR4 (c) in the presence of increasing ABR-238901 concentrations. The magnitude of the response for each ABR-238901 concentration (BABR-238901), measured at the late dissociation phase (t 350s), was expressed as percentage of the response in the absence of competitor (BO), and plotted against the concentration of ABR-238901.
Inhibition of S100A9 binding to RAGE and TLR4/MD2 by ABR-238901 was tested by surface plasmon resonance in a Biacore 3000 system (GE Healthcare, Uppsala, Sweden). Briefly, 50 nM of recombinant human S100A9 was injected over immobilized RAGE and TLR4 (2 min at 30 μL/min) in the presence of increasing concentrations of ABR-238901, ranging from 0.0488 to 100 μM. The magnitude of the responses measured at the late dissociation phase (t 350 s) in the presence of ABR-238901 (BABR-238901) were expressed as percentage of response in the absence of competitor (Bo), and plotted against the concentration of ABR-238901 (FIG. 7b-c). The curves were fit to a sigmoidal dose-response model with variable slope in Prism GraphPad for calculation of IC50.

[1] = test system: C57BL/6 mice with MI induced by permanent coronary artery ligation; assay: MI by permanent coronary artery ligation, short-term (3 days) treatment: echocardiography, MRI, scar, infarct size, TUNEL; format: in vivo, mouse; details: for Size of the infarction, percentage of the AAR volume, vs PBS: TTC
Description: All mouse studies were approved by the Animal Research Ethics Committee of Lund University. C57BL/6NRJ mice were purchased from Janvier Labs, C57BL/6-Tg(Nr4a1-EGFP/cre)820Khog/J (Nur77-EGFP) and B6;D2-Tg(Myh6*-mCherry)2Mik/J (α-MHC-mCherry) were purchased from the Jackson Laboratory. Nur77-EGFP mice express the fluorescent EGFP protein under the Nur77 promoter. α-MHC-mCherry mice express the red fluorescent Cherry protein under the mouse alpha myosin heavy-chain promoter in cardiomyocytes. We used 8-12 weeks old female mice in all experiments. MI was induced by left coronary artery ligation using a minimal thoracotomy model. Mice were initially anesthetized with 4% isoflurane and the surgical procedure was performed under 1.7% isoflurane. Following heart exposure outside of the thorax through a small thoracic incision, the left coronary artery was permanently ligated using silk 6.0 suture, the heart repositioned, and the thorax was closed with 6.0 prolene monofilament suture.
For short-term experiments, a daily dose of 30 mg/Kg ABR-238901 was diluted in PBS and administered by daily i.p. injections for the first 3 days post-MI, starting immediately after ischemia induction (days 0, 1 and 2) (FIG. 1A).
Ultrasound measurements were performed at day −1 (baseline), 7, and 21 to assess cardiac function using a Vevo 770 echocardiographic imaging system with a 707B probe (VisualSonics, Toronto, Canada). In selected experiments, additional assessment was performed on days 3 and 14. The mice were anesthetized using 1-3% isoflurane and hair was carefully removed using depilatory cream. To maintain body temperature, the mice were placed in supine position on a heated surface (37° C.). Two-dimensional M-mode images were recorded in the parasternal short-axis view at the mid-papillary level. Five complete cardiac cycles were traced to calculate fractional shortening, ejection fraction, left ventricular systolic volume, and left ventricular diastolic volume by using the VisualSonics software.
At 21 days after MI, the hearts were perfused with ice cold PBS and excised under ketamine/xylazine anesthesia. Subsequently the hearts were fixed in 4% (w/v) paraformaldehyde and embedded in paraffin. The hearts were sectioned transversely from the apex to the level of the suture, and 6 μm thick sections were collected at 390 μm intervals. The sections were mounted on glass slides and stained with Van Gieson or Masson trichrome stain for quantitative analysis of scar size. Alarmin S100A8/A9 was detected using mouse anti-S100A8/A9 IgG1 antibody (Abcam, ab 130234, 1:100 dilution, O/N 4° C.). Goat anti-mouse IgG1 HRP-conjugated secondary antibody (Abcam, ab 97240, 1 h RT) was used and the staining was developed with ImmPACT™ DAB (Vector, SK-4105) chromogen as substrate. The slides were subsequently scanned using an Aperio digital pathology slide scanner (Leica Biosystems), and images were captured with the ImageScope software (Leica Biosystems). Left ventricle area and the infarcted area were measured on each section by using the BioPix iQ 2.5.0 software (Biopix AB). The size of the post-MI myocardial scar was expressed as percentage of the left ventricle volume below the coronary ligature.
Magnetic resonance measurements were performed on a 9.4 T horizontal magnet (Agilent, Santa Clara, USA) equipped with Bruker BioSpec AVIII electronics operating with ParaVision 6.0.1 (Bruker, Ettlingen, Germany). The experiments were conducted under general anaesthesia using a mixture of isoflurane (2%) and 98% O2 via a nose cone. Rectal temperature, ECG signal, and breathing rate were monitored throughout the measurements (SA instruments, Stony Brook, USA). During the experiment, the mouse was positioned prone in an animal holder and kept warm to maintain constant body temperature at 36-37° C. ECG and respiration triggered FLASH sequence was used to acquire cinematographic MR image series of the beating heart. […]

[2] = test system: C57BL/6 mice with sepsis induced by bacterial lipopolysaccharide; assay: LPS-induced sepsis: weight loss; format: in vivo, mouse
Method: General animal care, induction of sepsis and treatments were performed as described under Example 7. We included 5 mice per treatment group. After induction of sepsis, the mice were monitored for 7 days (FIG. 15A). To evaluate bodyweight, mice were weighed daily at the same time points during the course of the experiment.

[3] = 3 days treatment, MR, not statistically significant

SMILES: COc1ncc(S(=O)(=O)Nc2cncc(Cl)c2O)cc1Br [ABR-238901, 5-bromo-N-(5-chloro-4-hydroxypyridin-3-yl)-6-methoxypyridine-3-sulfonamide]
- IC50 (S100A9 binding to RAGE): 2700 nM
- Left ventricular EF, average ([1]; 30 mg/Kg i.p. at 0, 24, 48 h, echocardiography, day 21): 36%
- Left ventricular EF vs PBS-treated controls ([1]; 30 mg/Kg i.p. at 0, 24, 48 h, echocardiography, days 3, 7, 21): higher throughout the follow-up period
- Increase in cardiac output from day 3 to day 21 ([1]; 3 days treatment, MR): approximately 30%
- Cardiac output (CO) ([1]; 3 days treatment, MR, day 3): 8.1 mL/min
- Left ventricular EF ([1]; 3 days treatment, MR, day 3): 29%
- Left ventricular EF ([1]; 3 days treatment, MR, day 7): 25%
- Cardiac output (CO) ([1]; 3 days treatment, MR, day 21): 10.4 mL/min
- Left ventricular EF ([1]; 3 days treatment, MR, day 21): 26%
- EDV vs PBS-treated MI group [1, 3]: tendency towards lower
- ESV vs PBS-treated MI group [1, 3]: tendency towards lower
- Size of the infarction, percentage of the AAR volume, vs PBS ([1]; 3 days treatment, day 3 post-MI): smaller
- Size of the infarction, percentage of the AAR volume, vs PBS ([1]; 3 days treatment, day 7 post-MI): smaller
- Average myocardial scar size vs controls ([1]; 3 days treatment, day 21, Van Gieson staining): tendency towards smaller
- Percentage of apoptotic cells in the myocardium (TUNEL) ([1]; day 3 post-MI): significantly reduced
- Decrease in body weight ([2]; day 1): 5.2%
- Decrease in body weight ([2]; day 2): 11.7%
- Decrease in body weight ([2]; day 3): 8.8%
- Decrease in body weight ([2]; day 4): 4%
